Results reported in ChEMBL document CHEMBL6127041, “Dual-target inhibitors based on acetylcholinesterase: Novel agents for Alzheimer's disease” (Eur J Med Chem, 2024).
One block for each compound: values may come before it.

Key:
Acetylcholinesterase [1] = target: T1, Acetylcholinesterase (Homo sapiens, UniProt P22303); experiment: Inhibition of AChE (unknown origin) incubated for 1 hr by Ellman's method
Beta-secretase 1 [2] = target: T2, Beta-secretase 1 (Homo sapiens, UniProt P56817); experiment: Inhibition of BACE-1 (unknown origin)
T2 sequence (P56817 whole entry): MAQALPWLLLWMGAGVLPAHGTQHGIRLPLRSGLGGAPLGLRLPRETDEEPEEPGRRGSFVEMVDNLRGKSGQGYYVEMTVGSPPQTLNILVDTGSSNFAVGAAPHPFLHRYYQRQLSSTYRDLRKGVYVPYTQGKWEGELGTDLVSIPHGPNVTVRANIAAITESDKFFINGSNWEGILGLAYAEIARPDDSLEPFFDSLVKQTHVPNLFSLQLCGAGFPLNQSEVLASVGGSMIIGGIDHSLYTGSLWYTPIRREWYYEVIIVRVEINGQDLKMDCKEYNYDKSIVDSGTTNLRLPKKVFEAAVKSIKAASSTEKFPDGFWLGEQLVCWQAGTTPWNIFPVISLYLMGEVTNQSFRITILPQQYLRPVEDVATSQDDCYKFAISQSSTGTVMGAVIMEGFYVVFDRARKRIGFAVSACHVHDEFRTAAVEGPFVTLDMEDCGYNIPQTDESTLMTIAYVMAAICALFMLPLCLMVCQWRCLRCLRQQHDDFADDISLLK

[3] = target: T3, Amine oxidase [flavin-containing] A (Homo sapiens, UniProt P21397); experiment: Inhibition of MAO-A (unknown origin)
T3 sequence (P21397 whole entry): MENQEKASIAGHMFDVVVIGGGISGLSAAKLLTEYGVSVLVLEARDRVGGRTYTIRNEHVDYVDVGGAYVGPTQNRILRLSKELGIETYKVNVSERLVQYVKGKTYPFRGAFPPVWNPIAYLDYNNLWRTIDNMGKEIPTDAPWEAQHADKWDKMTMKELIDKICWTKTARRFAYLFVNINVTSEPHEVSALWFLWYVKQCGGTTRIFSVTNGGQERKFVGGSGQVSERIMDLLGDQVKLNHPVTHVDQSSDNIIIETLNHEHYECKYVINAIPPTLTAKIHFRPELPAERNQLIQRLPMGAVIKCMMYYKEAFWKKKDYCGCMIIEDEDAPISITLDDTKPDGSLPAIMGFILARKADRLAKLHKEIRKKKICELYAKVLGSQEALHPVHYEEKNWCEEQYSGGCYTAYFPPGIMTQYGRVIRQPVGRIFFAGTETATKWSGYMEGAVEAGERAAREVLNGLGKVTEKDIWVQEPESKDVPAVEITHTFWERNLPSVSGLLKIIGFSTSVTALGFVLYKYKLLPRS

Acetylcholinesterase [4] = target: T4, Acetylcholinesterase (Electrophorus electricus, UniProt O42275); experiment: Inhibition of electric eel AChE using acetylthiocholine iodide as substrate preincubated for 5 mins followed by substrate addition by DTNB reagent based Ellman's method
T4 sequence (O42275 whole entry): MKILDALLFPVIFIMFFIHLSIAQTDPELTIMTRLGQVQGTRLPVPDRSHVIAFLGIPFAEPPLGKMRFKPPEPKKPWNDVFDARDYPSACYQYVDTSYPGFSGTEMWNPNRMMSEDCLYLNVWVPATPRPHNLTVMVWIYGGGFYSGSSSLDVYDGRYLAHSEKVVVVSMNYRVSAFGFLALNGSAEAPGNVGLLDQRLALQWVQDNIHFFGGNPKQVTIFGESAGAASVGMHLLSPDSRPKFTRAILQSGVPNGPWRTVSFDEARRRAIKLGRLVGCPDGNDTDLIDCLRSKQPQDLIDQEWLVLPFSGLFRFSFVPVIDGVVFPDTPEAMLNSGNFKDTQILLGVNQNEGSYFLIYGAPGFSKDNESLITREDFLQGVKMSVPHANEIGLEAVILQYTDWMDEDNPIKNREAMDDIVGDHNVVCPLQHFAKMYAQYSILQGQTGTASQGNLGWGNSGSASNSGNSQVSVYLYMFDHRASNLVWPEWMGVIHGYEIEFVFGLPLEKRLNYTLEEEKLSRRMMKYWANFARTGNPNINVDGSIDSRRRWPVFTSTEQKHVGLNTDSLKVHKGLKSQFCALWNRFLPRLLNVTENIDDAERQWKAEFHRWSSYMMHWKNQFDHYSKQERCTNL

[5] = target: T5, Amine oxidase [flavin-containing] B (Homo sapiens, UniProt P27338); experiment: Inhibition of MAO-B (unknown origin)
T5 sequence (P27338 whole entry): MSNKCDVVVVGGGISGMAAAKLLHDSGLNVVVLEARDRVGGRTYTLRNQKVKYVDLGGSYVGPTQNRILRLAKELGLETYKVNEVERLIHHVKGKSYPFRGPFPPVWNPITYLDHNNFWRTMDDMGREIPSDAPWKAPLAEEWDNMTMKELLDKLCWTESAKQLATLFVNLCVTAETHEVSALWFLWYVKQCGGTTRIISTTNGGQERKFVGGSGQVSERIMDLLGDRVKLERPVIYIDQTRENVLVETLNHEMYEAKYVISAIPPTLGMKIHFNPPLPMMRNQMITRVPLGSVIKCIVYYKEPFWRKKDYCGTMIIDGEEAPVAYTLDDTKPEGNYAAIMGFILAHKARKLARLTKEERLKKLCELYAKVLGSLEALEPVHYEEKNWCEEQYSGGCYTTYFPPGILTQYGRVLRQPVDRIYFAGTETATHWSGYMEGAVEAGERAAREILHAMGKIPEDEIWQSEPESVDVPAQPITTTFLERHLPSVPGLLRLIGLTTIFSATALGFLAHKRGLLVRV

[6] = target: T6, Glycogen synthase kinase-3 beta (Homo sapiens, UniProt P49841); experiment: Inhibition of human recombinant GSK3beta by ADP-Glo Kinase Assay
T6 sequence (P49841 whole entry): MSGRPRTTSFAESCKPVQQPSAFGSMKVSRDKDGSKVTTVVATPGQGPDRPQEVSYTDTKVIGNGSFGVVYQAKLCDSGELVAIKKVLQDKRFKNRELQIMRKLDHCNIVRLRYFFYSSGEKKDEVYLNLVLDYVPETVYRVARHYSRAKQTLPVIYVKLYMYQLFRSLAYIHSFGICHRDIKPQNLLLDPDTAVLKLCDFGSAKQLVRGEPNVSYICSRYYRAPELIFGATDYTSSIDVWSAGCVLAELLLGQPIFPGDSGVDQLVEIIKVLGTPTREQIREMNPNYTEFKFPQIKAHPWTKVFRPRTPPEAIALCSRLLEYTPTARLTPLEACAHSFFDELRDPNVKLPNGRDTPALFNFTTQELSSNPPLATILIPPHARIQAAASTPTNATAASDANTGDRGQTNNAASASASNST

Acetylcholinesterase [7] = target: T1, Acetylcholinesterase
Acetylcholinesterase [8] = target: T1, Acetylcholinesterase; experiment: Inhibition of human AChE using acetylthiocholine iodide as substrate after 15 mins by Ellman's method
Cholinesterase [9] = target: T7, Cholinesterase (Homo sapiens, UniProt P06276); experiment: Inhibition of BChE (unknown origin) incubated for 10 mins by Ellman's method
T7 sequence (P06276 whole entry): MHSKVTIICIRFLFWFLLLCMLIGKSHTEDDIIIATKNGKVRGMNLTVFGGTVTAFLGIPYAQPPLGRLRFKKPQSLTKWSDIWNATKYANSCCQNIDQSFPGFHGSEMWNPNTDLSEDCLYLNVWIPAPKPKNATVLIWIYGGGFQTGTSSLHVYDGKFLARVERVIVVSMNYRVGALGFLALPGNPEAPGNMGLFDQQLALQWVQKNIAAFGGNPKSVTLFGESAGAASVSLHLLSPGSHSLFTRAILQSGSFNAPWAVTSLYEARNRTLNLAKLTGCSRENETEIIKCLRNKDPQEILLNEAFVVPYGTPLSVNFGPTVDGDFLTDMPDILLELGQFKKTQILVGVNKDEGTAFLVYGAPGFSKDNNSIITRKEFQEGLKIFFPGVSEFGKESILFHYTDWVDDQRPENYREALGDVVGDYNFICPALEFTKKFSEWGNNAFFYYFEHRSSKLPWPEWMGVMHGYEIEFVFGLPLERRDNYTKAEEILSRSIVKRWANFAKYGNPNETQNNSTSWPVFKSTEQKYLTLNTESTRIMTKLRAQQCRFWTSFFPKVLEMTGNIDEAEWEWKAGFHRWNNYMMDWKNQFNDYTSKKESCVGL

Acetylcholinesterase [10] = target: T1, Acetylcholinesterase; experiment: Inhibition of AChE (unknown origin) using acetylthiocholine iodide as substrate measured for 20 mins by Ellman's method
Acetylcholinesterase [11] = target: T1, Acetylcholinesterase; experiment: Inhibition of human recombinant AChE using acetylthiocholine iodide as substratE incubated for 20 mins by DTNB reagent based Ellman's method
Beta-secretase 1 [12] = target: T2, Beta-secretase 1; experiment: Inhibition of human BACE-1 by FRET assay
Cholinesterase [13] = target: Cholinesterase (Equus caballus, UniProt P81908); experiment: Inhibition of equine serum BuChE using butyrylthiocholine iodide as substrate preincubated for 5 mins followed by substrate addition by DTNB reagent based Ellman's method
Chain of Cholinesterase (Equus caballus, UniProt P81908) (P81908 whole entry): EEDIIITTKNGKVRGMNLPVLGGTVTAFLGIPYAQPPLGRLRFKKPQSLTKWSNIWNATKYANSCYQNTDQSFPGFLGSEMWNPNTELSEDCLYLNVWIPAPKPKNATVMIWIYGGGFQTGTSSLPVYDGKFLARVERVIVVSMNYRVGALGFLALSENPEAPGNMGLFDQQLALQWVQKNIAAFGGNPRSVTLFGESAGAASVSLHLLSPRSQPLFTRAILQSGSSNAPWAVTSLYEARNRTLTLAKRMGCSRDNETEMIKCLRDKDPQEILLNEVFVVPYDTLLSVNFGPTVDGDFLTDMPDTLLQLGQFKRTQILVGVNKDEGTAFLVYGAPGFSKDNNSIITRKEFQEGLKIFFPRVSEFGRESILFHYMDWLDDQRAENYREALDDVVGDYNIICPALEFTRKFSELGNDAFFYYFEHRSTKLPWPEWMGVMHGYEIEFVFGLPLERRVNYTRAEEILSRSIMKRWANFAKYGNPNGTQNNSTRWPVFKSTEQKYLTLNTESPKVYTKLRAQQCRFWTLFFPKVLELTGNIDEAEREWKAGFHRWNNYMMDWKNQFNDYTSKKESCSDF

Acetylcholinesterase [14] = target: T1, Acetylcholinesterase; remark: listed apart in the source
Description: Inhibition of human AChE by Ellman's method

Acetylcholinesterase [15] = target: T1, Acetylcholinesterase; experiment: Inhibition of human AChE using acetylthiocholine iodide as substrate preincubated for 15 mins followed by substrate addition and measured for 30 mins by Ellman's method
Acetylcholinesterase [16] = target: T1, Acetylcholinesterase; experiment: Inhibition of AChE (unknown origin) using acetylthiocholine iodide as substrate measured after 15 mins by Ellman's method
Acetylcholinesterase [17] = target: T1, Acetylcholinesterase; experiment: Inhibition of AChE (unknown origin)
[18] = target: High affinity cGMP-specific 3',5'-cyclic phosphodiesterase 9A (Homo sapiens, UniProt O76083); experiment: Inhibition of PDE9A (unknown origin)
Chain of High affinity cGMP-specific 3',5'-cyclic phosphodiesterase 9A (O76083 whole entry): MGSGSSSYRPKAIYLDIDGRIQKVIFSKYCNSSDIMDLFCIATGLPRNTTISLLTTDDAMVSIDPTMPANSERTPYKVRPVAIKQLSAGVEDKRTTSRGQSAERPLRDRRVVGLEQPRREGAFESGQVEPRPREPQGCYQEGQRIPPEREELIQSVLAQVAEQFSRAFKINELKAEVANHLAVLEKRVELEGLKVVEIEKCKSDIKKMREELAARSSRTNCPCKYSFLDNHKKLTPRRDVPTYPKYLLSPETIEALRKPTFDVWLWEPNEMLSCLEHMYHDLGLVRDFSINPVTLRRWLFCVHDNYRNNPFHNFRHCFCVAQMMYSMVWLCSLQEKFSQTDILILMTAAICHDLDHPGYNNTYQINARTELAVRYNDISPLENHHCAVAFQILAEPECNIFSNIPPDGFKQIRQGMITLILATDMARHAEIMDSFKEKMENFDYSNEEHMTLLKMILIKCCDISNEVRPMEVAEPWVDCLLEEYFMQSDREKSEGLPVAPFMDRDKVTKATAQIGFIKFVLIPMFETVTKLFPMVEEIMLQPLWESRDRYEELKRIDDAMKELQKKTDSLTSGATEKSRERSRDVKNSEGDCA

[19] = Permeability of compound at pH 7.4 by PAMPA assay; type: ADME; conditions: read-out: permeability
Acetylcholinesterase [20] = target: T4, Acetylcholinesterase; experiment: Inhibition of electric eel AChE by Ellman's method
[21] = target: T6, Glycogen synthase kinase-3 beta
Description: Inhibition of human GSK3beta by TR-FRET analysis

Acetylcholinesterase [22] = target: T1, Acetylcholinesterase; experiment: Inhibition of AChE (unknown origin) by Ellman's method
Acetylcholinesterase [23] = target: T1, Acetylcholinesterase; experiment: Inhibition of human AChE using acetylthiocholine iodide as substrate measured for 1 hr by Ellman's method
Cholinesterase [24] = target: T7, Cholinesterase; experiment: Inhibition of human BChE using butyrylthiocholineiodide as substrate measured for 30 mins by Ellman's method

T1 sequence (P22303 whole entry): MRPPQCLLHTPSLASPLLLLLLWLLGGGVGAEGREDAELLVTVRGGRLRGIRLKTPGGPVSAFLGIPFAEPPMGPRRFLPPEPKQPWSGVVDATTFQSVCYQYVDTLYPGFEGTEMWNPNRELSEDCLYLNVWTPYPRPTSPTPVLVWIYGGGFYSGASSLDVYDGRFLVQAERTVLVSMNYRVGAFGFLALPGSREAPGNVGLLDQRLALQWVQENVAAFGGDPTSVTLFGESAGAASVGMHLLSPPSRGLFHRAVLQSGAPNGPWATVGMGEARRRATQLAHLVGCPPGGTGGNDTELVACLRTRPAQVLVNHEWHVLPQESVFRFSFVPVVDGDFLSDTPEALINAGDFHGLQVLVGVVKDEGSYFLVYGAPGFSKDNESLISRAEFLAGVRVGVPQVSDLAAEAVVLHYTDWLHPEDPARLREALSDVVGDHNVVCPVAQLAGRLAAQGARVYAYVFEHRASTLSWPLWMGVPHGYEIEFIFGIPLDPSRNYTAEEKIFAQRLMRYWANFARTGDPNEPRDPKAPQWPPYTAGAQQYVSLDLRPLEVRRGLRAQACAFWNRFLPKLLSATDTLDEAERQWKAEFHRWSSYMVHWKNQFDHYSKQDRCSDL

SMILES: COC(=O)c1ccc(/C=N/NC(=O)c2ccc(Cl)nc2)cc1
- IC50 (Acetylcholinesterase [1]): 100 nM
- IC50 (Beta-secretase 1 [2]): 2800 nM

SMILES: O=C(/C=C/c1ccc(OCc2ccccc2)cc1)c1ccc2c(c1)OCO2
- IC50 [3]: 8610 nM
- IC50 (Acetylcholinesterase [4]): 5400 nM
- IC50 [5]: 1540 nM

SMILES: COc1nc(-c2ccnc(NC(=O)C3CC3)c2)sc1C(=O)NCNc1c2c(nc3ccccc13)CCCC2
- IC50 [6]: 68 nM
- IC50 (Acetylcholinesterase [7]): 6.3 nM

- IC50 [5]: 20 nM
SMILES: COc1ccc(/C=C/C(=N/Oc2ccc(/C=C/C(=O)c3ccc(F)cc3)cc2)c2ccc(OC)cc2)cc1

SMILES: COc1ccc(/C=N/NC(=O)c2ccc(Cl)nc2)cc1OC
- IC50 (Acetylcholinesterase [1]): 30 nM
- IC50 (Beta-secretase 1 [2]): 400 nM

SMILES: CNC(=O)c1sc(-c2ccnc(NC(=O)C3CC3)c2)nc1OC1CCN(Cc2ccccc2)CC1
- IC50 (Acetylcholinesterase [8]): 73 nM

SMILES: O=C(/C=C/c1ccccc1)c1ccc(N2CCOCC2)cc1
- IC50 [3]: > 40000 nM
- IC50 (Cholinesterase [9]): > 40000 nM

SMILES: COc1cc(/C=C2\Oc3cc(OCCN4CCCCC4)ccc3C2=O)cc(OC)c1OC
- IC50 [3]: > 100000 nM
- IC50 [5]: 340 nM
- IC50 (Acetylcholinesterase [10]): 1560 nM

SMILES: CCOc1cc(/C=N/NC(=O)c2ccc(Cl)nc2)ccc1O
- IC50 (Acetylcholinesterase [1]): 30 nM
- IC50 (Beta-secretase 1 [2]): 700 nM

SMILES: COc1ccccc1NC(=O)C1CCN(Cc2ccccc2)CC1
- IC50 (Acetylcholinesterase [11]): 157 nM
- IC50 (Beta-secretase 1 [12]): 277 nM

SMILES: CCOc1ccc(C(=O)/C=C/c2ccccc2)cc1
- IC50 [3]: 28500 nM
- IC50 (Acetylcholinesterase [4]): 3230 nM
- IC50 [5]: 400 nM

SMILES: Fc1ccc(-c2nnc(N3CCN(c4ccccn4)CC3)o2)c(F)c1
- IC50 (Beta-secretase 1 [2]): 210 nM
- IC50 (Cholinesterase [13]): 160 nM

SMILES: COc1ccc(/C=C2\Oc3cc(OCCN4CCCC4)ccc3C2=O)c(OC)c1OC
- IC50 [5]: 340 nM
- IC50 (Acetylcholinesterase [14]): 1560 nM

SMILES: O=C(N/N=C/c1ccc([N+](=O)[O-])cc1)c1ccc(Cl)nc1
- IC50 (Acetylcholinesterase [1]): 20 nM
- IC50 (Beta-secretase 1 [2]): 200 nM

SMILES: O=C1/C(=C/c2ccc(O)cc2)Oc2cc(O)ccc21
- IC50 (Acetylcholinesterase [15]): 202000 nM

SMILES: Nc1ccccc1C(=O)/C=C/c1cnc2c(c1)OCO2
- IC50 (Acetylcholinesterase [16]): 4160 nM

SMILES: COc1cc(/C=N/NC(=O)c2ccc(Cl)nc2)ccc1O
- IC50 (Acetylcholinesterase [1]): 30 nM
- IC50 (Beta-secretase 1 [2]): 600 nM

SMILES: CN(C)c1ccc(/C=C/C(=O)c2ccc(N3CCOCC3)cc2)cc1
- IC50 [3]: > 40000 nM
- IC50 (Cholinesterase [9]): > 40000 nM

SMILES: O=c1[nH]c(CCCCC2CCN(Cc3ccccc3)CC2)nc2c1cnn2C1CCCC1
- IC50 (Acetylcholinesterase [17]): 40 nM
- IC50 [18]: 280 nM

SMILES: COc1ccc2c(c1)C/C(=C/c1ccccc1-c1ccc3ccccc3c1)C2=O
- IC50 (Beta-secretase 1 [12]): 101 nM

SMILES: Cc1ccc(/C=C/C(=O)c2ccccc2N)cn1
- IC50 (Acetylcholinesterase [16]): 2920 nM

- Papp at 18 h [19]: 2.16 ×10⁻⁶ cm/s
SMILES: CN1CC(=O)N2[C@H](c3ccc4c(c3)OCO4)c3[nH]c4ccccc4c3C[C@@H]2C1=O

SMILES: COc1ccccc1/C=C1\Oc2cc(OCCN3CCCC3)ccc2C1=O
- IC50 [3]: > 100000 nM
- IC50 [5]: 980 nM
- IC50 (Acetylcholinesterase [10]): 2670 nM

SMILES: Clc1ccc(-c2nnc(CNC3CCN(Cc4ccccc4)CC3)o2)c(Cl)c1
- IC50 (Beta-secretase 1 [2]): 250 nM
- IC50 (Cholinesterase [13]): 210 nM

SMILES: O=CNc1nccc2c1[nH]c1cc(C(=O)NCCC3CCN(Cc4ccccc4F)CC3)ccc12
- IC50 (Acetylcholinesterase [20]): 270 nM
- IC50 [21]: 6780 nM

SMILES: O=C(/C=C/c1ccc(F)cc1)c1ccc(Br)s1
- IC50 [3]: 4060 nM
- IC50 (Acetylcholinesterase [4]): 18200 nM
- IC50 (Cholinesterase [9]): 16300 nM
- IC50 [5]: 1710 nM

SMILES: COc1ccc2c3c1O[C@H]1C[C@@H](O)C=C[C@@]31CCN(CCCCCCNC13CC4CC(C)(CC(C)(C4)C1)C3)C2 [MEMAGAL]
- IC50 (Acetylcholinesterase [22]): 1.16 nM

SMILES: [O-]/[N+](=C\c1ccc2cccc(O)c2n1)Cc1ccccc1
- IC50 (Acetylcholinesterase [23]): 30 nM
- IC50 (Cholinesterase [24]): 1 nM
